Consider 8 compounds from patent US20240150293A1, “SPIROCYCLOHEXANE DERIVATIVES, PHARMACEUTICAL COMPOSITIONS CONTAINING THEM AND THEIR USES AS ANTI-APOPTOTIC INHIBITORS” (LES LABORATOIRES SERVIER, priority 2021, published 2024).

Assay [1] has as its system H929 multiple myeloma tumor line. The assay is described as follows: In vitro cytotoxicity, MTT assay (Example B, Method A). The assay is classed as cell-based. To be noted: Homo sapiens, NCI-H929, 48 h, H929 cells, 48 hours exposure, read-out: C50. How it is done:
The cytotoxicity studies were carried out on the H929 multiple myeloma tumor line.
The cells are distributed onto microplates and exposed to the test compounds for 48 hours. The cell viability is then quantified by a colorimetric assay, the Microculture Tetrazolium Assay (Carmichael et al, Cancer Res. 1987, 47, 939-942).
The results are expressed in C50 which means concentration corresponding to […] of effect/inhibition.
(In general: Tetrazolium dyes change colour on reduction, which living cells bring about.)

In assay [2] the target is Cy5-labelled Mcl1 (amino acids 171-321) C286S protein (UniProtKB Q07820) (Homo sapiens (Human), UniProt Q07820, C286S). Kind of assay: Inhibition of Mcl-1 by the fluorescence quenching assay (Example A, Method B). Type of assay: binding. The method in brief:
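Cy5-labelled Mcl1 171-321 C286S (1 nM) quenched by TQ5WS-labelled PUMA peptide (10, 20 or 400 nM); displacement raises fluorescence (Ex 620/Em 680 nm). Buffer 10 mM HEPES, 150 mM NaCl, 0.05% Tween 20, pH 7.4, 5% DMSO; 2 h at room temperature, 11-point curves, IC50 converted to Ki (cKi/eKi).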

SMILES strings stand for the structures.

Cy5-labelled Mcl1 (amino acids 171-321) C286S protein, sequence (Q07820 171-321 C286S): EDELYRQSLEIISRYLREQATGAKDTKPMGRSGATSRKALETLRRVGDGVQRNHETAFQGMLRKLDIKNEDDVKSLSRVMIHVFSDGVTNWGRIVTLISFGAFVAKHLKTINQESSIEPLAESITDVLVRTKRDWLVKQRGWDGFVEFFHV

`CC[C@@H]1CC[C@@H](O)c2nccc(OC[C@H](C)C[C@H]3Cc4ccccc4[C@]34CC[C@@](Nc3cccc(Cl)c3)(C(=O)O)CC4)c21` [Example 679, (1r,2′S,4S)-4-(3-chloroanilino)-2′-[(2R)-3-{[(5R,8R)-5-ethyl-8-hydroxy-5,6,7,8-tetrahydroquinolin-4-yl]oxy}-2-methylpropyl]-2′,3′-dihydrospiro[cyclohexane-1,1′-indene]-4-carboxylic acid]: the IC50 in assay [1] came out at 199 nM. Besides, the Ki (usually the dissociation constant of the complex between target and ligand, obtained from inhibition or displacement) in assay [2] worked out at 2.32 nM.
The corresponding values for `C[C@@H](COc1ccnc2c1CCC[C@@H]2F)C[C@H]1Cc2ccccc2[C@]12CC[C@@](Nc1cccc(Cl)c1)(C(=O)O)CC2` [Example 680, (1r,2′S,4S)-4-(3-chloroanilino)-2′-[(2R)-3-{[(8S)-8-fluoro-5,6,7,8-tetrahydroquinolin-4-yl]oxy}-2-methylpropyl]-2′,3′-dihydrospiro[cyclohexane-1,1′-indene]-4-carboxylic acid] are 687 nM and 2.09 nM.
The corresponding values for `C[C@@H](COc1ccnc2c1CCC[C@H]2F)C[C@H]1Cc2ccccc2[C@]12CC[C@@](Nc1cccc(Cl)c1)(C(=O)O)CC2` [Example 681, (1r,2′S,4S)-4-(3-chloroanilino)-2′-[(2R)-3-{[(8R)-8-fluoro-5,6,7,8-tetrahydroquinolin-4-yl]oxy}-2-methylpropyl]-2′,3′-dihydrospiro[cyclohexane-1,1′-indene]-4-carboxylic acid] are 1160 nM and 3.26 nM.
The corresponding values for `C[C@@H](COc1ccnc2c1CCC/C2=C\F)C[C@H]1Cc2ccccc2[C@]12CC[C@@](Nc1cccc(Cl)c1)(C(=O)O)CC2` [Example 684, (1r,2′S,4S)-4-(3-chloroanilino)-2′-[(2R)-3-{[(8E)-8-(fluoromethylidene)-5,6,7,8-tetrahydroquinolin-4-yl]oxy}-2-methylpropyl]-2′,3′-dihydrospiro[cyclohexane-1,1′-indene]-4-carboxylic acid] are 5850 nM and 45.5 nM.
With `C[C@@H](COc1ccnc2c1[C@@H](C)CC[C@H]2F)C[C@H]1Cc2ccccc2[C@]12CC[C@@](Nc1cccc(Cl)c1)(C(=O)O)CC2` [Example 687, (1r,2′S,4S)-4-(3-chloroanilino)-2′-[(2R)-3-{[(5R,8S)-8-fluoro-5-methyl-5,6,7,8-tetrahydroquinolin-4-yl]oxy}-2-methylpropyl]-2′,3′-dihydrospiro[cyclohexane-1,1′-indene]-4-carboxylic acid], in assay [1], the IC50 is 600 nM. For the same compound, in assay [2], the Ki is 4.25 nM.
On to `C[C@@H](COc1ccnc2c1[C@H](C)CC[C@@H]2F)C[C@H]1Cc2ccccc2[C@]12CC[C@@](Nc1cccc(Cl)c1)(C(=O)O)CC2` [Example 688, (1r,2′S,4S)-4-(3-chloroanilino)-2′-[(2R)-3-{[(5S,8R)-8-fluoro-5-methyl-5,6,7,8-tetrahydroquinolin-4-yl]oxy}-2-methylpropyl]-2′,3′-dihydrospiro[cyclohexane-1,1′-indene]-4-carboxylic acid], for which the IC50 in assay [1] came to 234 nM. In addition, the Ki in assay [2] amounted to 0.965 nM.
With `C[C@@H](COc1ccnc2c1[C@H](C)CC[C@H]2F)C[C@H]1Cc2ccccc2[C@]12CC[C@@](Nc1cccc(Cl)c1)(C(=O)O)CC2` [Example 689, (1r,2′S,4S)-4-(3-chloroanilino)-2′-[(2R)-3-{[(5R,8R)-8-fluoro-5-methyl-5,6,7,8-tetrahydroquinolin-4-yl]oxy}-2-methylpropyl]-2′,3′-dihydrospiro[cyclohexane-1,1′-indene]-4-carboxylic acid], in assay [1], the IC50 was 117 nM. Besides, in assay [2], the inhibition constant Ki stood at 1.46 nM.
The corresponding values for `C[C@@H](COc1ccnc2c1[C@@H](C)CC[C@@H]2F)C[C@H]1Cc2ccccc2[C@]12CC[C@@](Nc1cccc(Cl)c1)(C(=O)O)CC2` [Example 690, (1r,2′S,4S)-4-(3-chloroanilino)-2′-[(2R)-3-{[(5S,8S)-8-fluoro-5-methyl-5,6,7,8-tetrahydroquinolin-4-yl]oxy}-2-methylpropyl]-2′,3′-dihydrospiro[cyclohexane-1,1′-indene]-4-carboxylic acid] are 1410 nM and 29.5 nM.
